In US12780800B1, “Triazole-pyridinyl substituted azacyclohexyl acetic acid compounds as LPA receptor antagonists” (Viva Star Biosciences Limited, priority 2021, dated 2022) one finds IC50 data, which are given here for 24 compounds.

The IC50 is the concentration that gives 50% inhibition.

The target of this assay is T1, LPA1 (Homo sapiens, UniProt Q92633).
T1 construct: ProLink (PK) beta-galactosidase enzyme-fragment tag; host or cells: CHO-K1
T1 sequence (Q92633 whole entry, the tested form may be a part): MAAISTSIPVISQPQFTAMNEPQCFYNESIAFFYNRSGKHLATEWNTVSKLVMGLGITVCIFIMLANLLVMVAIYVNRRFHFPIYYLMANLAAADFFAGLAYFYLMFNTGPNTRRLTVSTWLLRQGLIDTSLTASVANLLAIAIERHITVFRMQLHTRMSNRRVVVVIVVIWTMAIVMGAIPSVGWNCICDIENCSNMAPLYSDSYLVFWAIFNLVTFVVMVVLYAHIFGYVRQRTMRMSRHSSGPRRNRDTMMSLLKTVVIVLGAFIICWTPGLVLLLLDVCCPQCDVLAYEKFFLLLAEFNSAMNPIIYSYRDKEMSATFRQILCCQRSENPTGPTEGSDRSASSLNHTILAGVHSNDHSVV
Briefly: LPA1 calcium flux assay (LPA1 functional antagonist assay). Type of assay: cell-based. As to conditions: PathHunter CHO-K1 EDG2 β-Arrestin cell line; calcium indicator dye; stimulated with EC80 concentration of LPA; FLIPR Tetra. The procedure: Following overnight culture, cells were loaded with calcium indicator dye from the HitHunter Calcium No WashPLUS Assay kit (Eurofins DiscoverX Corporation, Cat #93-0091) for 45 minutes at 37° C. […] After compound addition, assay plates were equilibrated to room temperature for 30 minutes. […] IC50 values were determined by Chemical and Biological Information System from ChemInnovation Software, Inc. The compounds of this invention were tested for their activity to inhibit LPA1 as determined in an LPA1 functional antagonist assay as described herein.
Take `CCc1nc(-c2nnn(C)c2Cn2cc(CC3CCC3)ccc2=O)ccc1N1C[C@@H](CC(=O)O)CC(F)(F)C1` [Example 14, (S)-2-(1-(6-(5-((5-(cyclobutylmethyl)-2-oxopyridin-1(2H)-y)methyl)-1-methyl-1H-1,2,3-triazol-4-yl)-2-ethylpyridin-3-yl)-5,5-difluoropiperidin-3-yl)acetic acid]: the IC50 was less than 100 nM.
The result for `CCc1nc(-c2nnn(C)c2COc2noc(C3CC3)n2)ccc1N1CC(CC(=O)O)CC(F)(F)C1` (stereo in doubt) [Example 114, (R)-2-(1-(6-(5-(((5-cyclopropyl-1,2,4-oxadiazol-3-yl)oxy)methyl)-1-methyl-1H-1,2,3-triazol-4-yl)-2-ethylpyridin-3-yl)-5,5-difluoropiperidin-3-yl)acetic acid] reads more than 5000 nM; that for `CCc1nc(-c2nnn(C)c2Cn2cc(CC(C)C)ccc2=O)ccc1N1C[C@@H](CC(=O)O)CC(F)(F)C1` [Example 12, (S)-2-(1-(2-ethyl-6-(5-((5-isobutyl-2-oxopyridin-1(2H)-yl)methyl)-l-methyl-1H-1,2,3-triazol-4-yl)pyridin-3-yl)-5,5-difluoropiperidin-3-y)acetic acid], less than 100 nM.
The result for `CCCc1ccc(=O)n(Cc2c(-c3ccc(N4CCO[C@H](CC(=O)O)C4)c(CC)n3)nnn2C)c1` [Example 172, 2-[(2R)-4-(2-ethyl-6-{1-methyl-5-[(2-oxo-5-propyl-1,2-dihydropyridin-1-yl)methyl]-1H-1,2,3-triazol-4-yl}pyridin-3-yl)morpholin-2-yl]acetic acid] reads 500 to 5000 nM; that for `Cc1nc(-c2nnn(C)c2COc2nccc(C3CCC3)n2)ccc1N1CCC[C@H](CC(=O)O)C1` [Example 84, (R)-2-(1-(6-(5-(((4-cyclobutylpyrimidin-2-yl)oxy)methyl)-1-methyl-1H-1,2,3-triazol-4-yl)-2-methylpyridin-3-yl)piperidin-3-yl)acetic acid], less than 100 nM.
The result for `CCc1nc(-c2nnn(C)c2COc2cn(CC(C)C)nn2)ccc1N1C[C@@H](CC(=O)O)CC(F)(F)C1` [Example 128, (S)-2-(1-(2-ethyl-6-(5-(((1-isobutyl-1H-1,2,3-triazol-4-yl)oxy)methyl)-1-methyl-1H-1,2,3-triazol-4-yl)pyridin-3-yl)-5,5-difluoropiperidin-3-yl)acetic acid] reads 100 to 500 nM; that for `CCc1nc(-c2nnn(C)c2CN2C[C@H](CC3CC3)NC2=O)ccc1N1C[C@@H](CC(=O)O)CC(F)(F)C1` [Example 65, 2-((S)-1-(6-(5-(((S)-4-(cyclopropylmethyl)-2-oxoimidazolidin-1-yl)methyl)-1-methyl-1H-1,2,3-triazol-4-yl)-2-ethylpyridin-3-yl)-5,5-difluoropiperidin-3-yl)acetic acid], more than 5000 nM.
As to `CCCc1ccc(=O)n(Cc2c(-c3ccc(N4C[C@H](CC(=O)O)CC(F)(F)C4)c(CC)n3)nnn2C)c1` [Example 7, (R)-2-(1-(2-ethyl-6-(1-methyl-5-((2-oxo-5-propylpyridin-1(2H)-yl)methyl)-1H-1,2,3-triazol-4-yl)pyridin-3-yl)-5,5-difluoropiperidin-3-yl)acetic acid], the IC50 lay within 500 to 5000 nM.
The result for `CCc1nc(-c2nnn(C)c2Cn2ccc(CC3CC3)c(C)c2=O)ccc1N1C[C@H](CC(=O)O)CC(F)(F)C1` [Example 11, (R)-2-(1-(6-(5-((4-(cyclopropylmethyl)-3-methyl-2-oxopyridin-1(2H)-yl)methyl)-1-methyl-1H-1,2,3-triazol-4-yl)-2-ethylpyridin-3-yl)-5,5-difluoropiperidin-3-yl)acetic acid] reads more than 5000 nM.
The result for `CCc1nc(-c2nnn(C)c2COc2nnn(CC3CC3)n2)ccc1N1C[C@@H](CC(=O)O)CC(F)(F)C1` [Example 125, (S)-2-(1-(6-(5-(((2-(cyclopropylmethyl)-2H-tetrazol-5-yl)oxy)methyl)-1-methyl-1H-1,2,3-triazol-4-yl)-2-ethylpyridin-3-yl)-5,5-difluoropiperidin-3-yl)acetic acid] reads less than 100 nM.
Take `CCc1nc(-c2nnn(C)c2CNc2nncc(C3CC3)n2)ccc1N1C[C@H](CC(=O)O)CC(F)(F)C1` (stereo in doubt) [Example 112, (R)-2-(1-(6-(5-(((5-cyclopropyl-1,2,4-triazin-3-yl)amino)methyl)-1-methyl-1H-1,2,3-triazol-4-yl)-2-ethylpyridin-3-yl)-5,5-difluoropiperidin-3-yl)acetic acid]: the IC50 lay in the range of 500 to 5000 nM.
The result for `CCCn1ccc(=O)c(OCc2c(-c3ccc(N4C[C@@H](CC(=O)O)CC(F)(F)C4)c(CC)n3)nnn2C)n1` [Example 111, (S)-2-(1-(2-ethyl-6-(1-methyl-5-(((4-oxo-1-propyl-1,4-dihydropyridazin-3-yl)oxy)methyl)-1H-1,2,3-triazol-4-yl)pyridin-3-yl)-5,5-difluoropiperidin-3-yl)acetic acid] reads more than 5000 nM; that for `CCc1nc(-c2nnn(C)c2COC(=O)N(C)C2CCC2)ccc1N1C[C@@H](CC(=O)O)CC(F)(F)C1` [Example 143, (S)-2-(1-(6-(5-(((cyclobutyl(methyl)carbamoyl)oxy)methyl)-1-methyl-1H-1,2,3-triazol-4-yl)-2-ethylpyridin-3-yl)-5,5-difluoropiperidin-3-yl)acetic acid], less than 100 nM.
The result for `CCCc1cccn(Cc2c(-c3ccc(N4C[C@@H](CC(=O)O)CC(F)(F)C4)c(C)n3)nnn2C)c1=O` [Example 5, (S)-2-(5,5-difluoro-1-(2-methyl-6-(1-methyl-5-((2-oxo-3-propylpyridin-1(2H)-yl)methyl)-1H-1,2,3-triazol-4-yl)pyridin-3-yl)piperidin-3-yl)acetic acid] reads more than 5000 nM; that for `CCc1nc(-c2nnn(C)c2COc2nccc(C3CCC3)n2)cc(F)c1N1CCCC(CC(=O)O)C1` (stereo not drawn) [Example 88, 2-(1-(6-(5-(((4-cyclobutylpyrimidin-2-yl)oxy)methyl)-1-methyl-1H-1,2,3-triazol-4-yl)-2-ethyl-4-fluoropyridin-3-yl)piperidin-3-yl)acetic acid], 100 to 500 nM.
The result for `Cc1nc(-c2nnn(C)c2COc2nccc(C3CCC3)n2)ccc1N1C[C@@H](CC(=O)O)CC(F)(F)C1` [Example 76, (S)-2-(1-(6-(5-(((4-cyclobutylpyrimidin-2-yl)oxy)methyl)-1-methyl-1H-1,2,3-triazol-4-yl)-2-methylpyridin-3-yl)-5,5-difluoropiperidin-3-yl)acetic acid] reads less than 100 nM; that for `Cc1nc(-c2nnn(C)c2COc2cc(-n3cccn3)ccn2)ccc1N1CCC[C@H](CC(=O)O)C1` [Example 103, (R)-2-(1-(6-(5-(((4-(1H-pyrazol-1-yl)pyridin-2-yl)oxy)methyl)-1-methyl-1H-1,2,3-triazol-4-yl)-2-methylpyridin-3-yl)piperidin-3-yl)acetic acid], less than 100 nM.
As for `CCc1nc(-c2nnn(C)c2COc2cc(-n3cccn3)ncn2)ccc1N1CCC[C@H](CC(=O)O)C1` [Example 82, (R)-2-(1-(6-(5-(((6-(1H-pyrazol-1-yl)pyrimidin-4-yl)oxy)methyl)-1-methyl-1H-1,2,3-triazol-4-yl)-2-ethylpyridin-3-yl)piperidin-3-yl)acetic acid], the IC50 was less than 100 nM.
The result for `CCCc1ccc(=O)n(Cc2c(-c3ccc(N4C[C@@H](F)C[C@H](CC(=O)O)C4)c(CC)n3)nnn2C)c1` (single isomer, unassigned) [Example 45, 2-((3S,5S) or (3R,5R)-1-(2-ethyl-6-(1-methyl-5-((2-oxo-5-propylpyridin-1(2H)-yl)methyl)-1H-1,2,3-triazol-4-yl)pyridin-3-yl)-5-fluoropiperidin-3-yl)acetic acid] reads 100 to 500 nM; that for `CCCc1cn(Cc2c(-c3ccc(N4C[C@@H](CC(=O)O)CC(F)(F)C4)c(C)n3)nnn2C)ccc1=O` (stereo in doubt) [Example 43, (S)-2-(5,5-difluoro-1-(2-methyl-6-(1-methyl-5-((4-oxo-3-propylpyridin-1(4H)-yl)methyl)-1H-1,2,3-triazol-4-yl)pyridin-3-yl)piperidin-3-yl)acetic acid], more than 5000 nM.
The result for `CCCc1cn(Cc2c(-c3ccc(N4C[C@@H](CC(=O)O)CC(F)(F)C4)c(CC)n3)nnn2C)c(=O)cn1` [Example 29, (S)-2-(1-(2-ethyl-6-(1-methyl-5-((2-oxo-5-propylpyrazin-1(2H)-yl)methyl)-1H-1,2,3-triazol-4-yl)pyridin-3-yl)-5,5-difluoropiperidin-3-yl)acetic acid] reads 100 to 500 nM; that for `CCc1nc(-c2nnn(C)c2COc2cc(-n3ccnn3)ncn2)ccc1N1CCC[C@H](CC(=O)O)C1` [Example 97, 2-[(3R)-1-{2-ethyl-6-[1-methyl-5-({[6-(1H-1,2,3-triazol-1-yl)pyrimidin-4-yl]oxy}methyl)-1H-1,2,3-triazol-4-yl]pyridin-3-yl}piperidin-3-yl]acetic acid], 100 to 500 nM; that for `Cc1nc(-c2nnn(C)c2COc2cc(-n3cccn3)ncn2)ccc1N1C[C@@H](CC(=O)O)CC(F)(F)C1` [Example 78, (S)-2-(1-(6-(5-(((6-(1H-pyrazol-1-yl)pyrimidin-4-yl)oxy)methyl)-1-methyl-1H-1,2,3-triazol-4-yl)-2-methylpyridin-3-yl)-5,5-difluoropiperidin-3-yl)acetic acid], less than 100 nM.
As to `CCCc1ccc(=O)n(Cc2c(-c3ccc(N4C[C@@H](CC(=O)O)CC(F)(F)C4)c(CC)n3)nnn2C)c1` [Example 6, (S)-2-(1-(2-ethyl-6-(1-methyl-5-((2-oxo-5-propylpyridin-1(2H)-yl)methyl)-1 H-1,2,3-triazol-4-yl)pyridin-3-yl)-5,5-difluoropiperidin-3-yl)acetic acid], the IC50 was less than 100 nM.
